Measured values taken from patent publication US20190350887A1, “INCREASING BIOAVAILABILITY OF IRON WITH AVENANTHRAMIDE 2c” (priority 2018, published 2019).

System: Caco-2 cells
Assay: in vitro Caco-2 cell bioassay of iron bioavailability (ferritin formation)
Format: cell-based
Conditions: for effect on iron bioavailability: same testing conditions as avenanthramide 2c (FIG. 1)
Procedure: FIG. 1 is a graph illustrating the results of in vitro tests that were performed in order to predict the effect that avenanthramide 2c, avenanthramide 2p, and avenanthramide 2f would have on iron bioabsorption in humans. Specifically, an in vitro Caco-2 cell bioassay was used that accurately predicts how a compound will influence iron bioabsorption in humans. In these cells, the intracellular iron storage protein known as ferritin forms in direct proportion to cell iron uptake.
[…] The ferric chloride solution is administered to the cells by itself (as a control) and along with the compound(s) being tested to assess their effect iron bioavailability, as measured by the amount of ferritin formed in the cells—a sensitive and accurate measurement of cell iron uptake. The test protocol measures the total weight of cell protein and the total weight of ferritin produced by the cells in order to generate a weight ratio of ferritin to cell protein (in units of ng ferritin formed per mg cell protein). The ratios from the test samples are compared against a control sample wherein only ferric chloride is administered to the cells. Test samples with higher ferritin values (ng ferritin/mg cell protein) compared to the control indicate improvement or enhancement of iron bioavailability, whereas test samples with ferritin values approximately equal to (or within the margin of error) or less than the control indicates no effect on iron bioavailability or inhibition of iron bioavailability, respectively.

Row | SMILES | effect on iron bioavailability | iron bioavailability (ferritin formation) compared with control (5 μM avenanthramide with 10 μM ferric chloride, control = ferric chloride only) | ferritin formation relative to control (20 μM avenanthramide with 10 μM ferric chloride) | ferritin formation, increase over the 5 μM sample (20 μM avenanthramide with 10 μM ferric chloride, relative to 5 μM sample) | ferritin value compared with control and lower concentrations (30 μM avenanthramide with 10 μM ferric chloride)
1 | COc1cc(/C=C/C(=O)Nc2ccc(O)cc2C(=O)O)ccc1O [avenanthramide 2f, 5-hydroxy-2-[[(E)-3-(4-hydroxy-3-methoxyphenyl)prop-2-enoyl]amino]benzoic acid, reference compound] | negligible or zero effect | – | – | – | –
2 | O=C(/C=C/c1ccc(O)c(O)c1)Nc1ccc(O)cc1C(=O)O [avenanthramide 2c, 2-[[(E)-3-(3,4-dihydroxyphenyl)prop-2-enoyl]amino]-5-hydroxybenzoic acid] | – | more than double the control value | more than 3.5 times the control value | more than 1.5 factor | still above the values measured at 10 μM and 5 μM, and well above control
3 | O=C(/C=C/c1ccc(O)cc1)Nc1ccc(O)cc1C(=O)O [avenanthramide 2p, 5-hydroxy-2-[[(E)-3-(4-hydroxyphenyl)prop-2-enoyl]amino]benzoic acid, reference compound] | negligible or zero effect | – | – | – | –
